Source: the NIST ThermoML archive (doi:10.1016/j.jct.2016.04.020)

Test: mn = molality of the nth substance listed, in mol/kg
Details: 101.3 kPa, Liquid, Vibrating tube method

O=C([O-])CC(O)(CC(=O)[O-])C(=O)[O-].[NH4+].[NH4+].[NH4+] [ammonium 2-hydroxypropane-1,2,3-tricarboxylate] + O
mass density [kg/m3]
Details	m1 = 0.0125	m1 = 0.025	m1 = 0.04999	m1 = 0.09998	m1 = 0.1499	m1 = 0.2
283.15 K	1001.9	1003.43	1006.27	1011.68	1017.03	1022.12
287.15 K	1001.25	1002.76	1005.56	1010.91	1016.2	1021.24
293.15 K	1000.32	1001.83	1004.59	1009.9	1015.14	1020.13
298.15 K	999.12	1000.6	1003.33	1008.6	1013.82	1018.77
303.15 K	997.71	999.18	1001.88	1007.13	1012.32	1017.26
308.15 K	996.07	997.53	1000.22	1005.44	1010.62	1015.55
313.15 K	994.23	995.69	998.32	1003.56	1008.75	1013.67
318.15 K	992.21	993.66	996.29	1001.54	1006.7	1011.63
323.15 K	990.03	991.47	994.08	999.34	1004.49	1009.46
328.15 K	987.68	989.12	991.7	996.99	1002.14	1007.11
333.15 K	985.17	986.62	989.15	994.46	999.65	1004.59
